Source: PubChem BioAssay (NCI)
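At the GI50, growth is halved. The concentration for full growth arrest is given as TGI.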

How the values were obtained:
Assay in all cases: NCI-60 cell line screen, 384-well format
[1] = system: KM12 colon
[2] = system: K-562 leukemia
[3] = system: OVCAR-4 ovarian
[4] = system: OVCAR-3 ovarian
[5] = system: MDA-MB-231 breast
[6] = system: NCI-H226 lung
[7] = system: HL-60(TB) leukemia
[8] = system: SK-MEL-2 melanoma
[9] = system: SNB-75 CNS
[10] = system: HT29 colon
[11] = system: SK-MEL-28 melanoma
[12] = system: CAKI-1 renal
[13] = system: MALME-3M melanoma
[14] = system: HCT-116 colon
[15] = system: MDA-MB-435 melanoma
[16] = system: SN12C renal
[17] = system: T-47D breast
[18] = system: M14 melanoma
[19] = system: U251 glioblastoma
[20] = system: MOLT-4 leukemia
[21] = system: RXF 393 renal
[22] = system: UACC-62 melanoma
[23] = system: SK-MEL-5 melanoma
[24] = system: NCI-H322M lung
[25] = system: HCT-15 colon
[26] = system: RPMI-8226 leukemia
[27] = system: SW-620 colon
[28] = system: SNB-19 CNS
[29] = system: MDA-MB-468 breast
[30] = system: SK-OV-3 ovarian
[31] = system: SF-539 CNS
[32] = system: OVCAR-8 ovarian
[33] = system: TK-10 renal
[34] = system: SF-295 CNS
[35] = system: COLO 205 colon
[36] = system: UO-31 renal
[37] = system: 786-0 renal
[38] = system: LOX IMVI melanoma
[39] = system: SR leukemia
[40] = system: SF-268 CNS
[41] = system: EKVX NSCLC
[42] = system: DU-145 prostate
[43] = system: ACHN renal
[44] = system: NCI-H23 lung
[45] = system: CCRF-CEM leukemia
[46] = system: IGROV1 ovarian
[47] = system: MCF7 breast
[48] = system: UACC-257 melanoma
[49] = system: NCI/ADR-RES ovarian
[50] = system: NCI-H522 lung
[51] = system: NCI-H460 NSCLC
[52] = system: OVCAR-5 ovarian
[53] = system: HCC-2998 colon
[54] = system: BT-549 breast
[55] = system: A549 NSCLC
[56] = system: PC-3 prostate
[57] = system: A498 renal
[58] = system: HOP-62 NSCLC
[59] = system: HOP-92 NSCLC
[60] = system: HS 578T breast

`CCc1cccc(CC)c1NC(=O)c1ccn2c1CCc1cnc(Nc3ccc(N4CCN(C)CC4)cc3OC)nc1-2` gave a GI50 [1] of 1090 nM, a TGI [1] of 2320 nM and a GI50 [2] of 82.4 nM. It also gave a TGI [2] of 1400 nM, a GI50 [3] of 1490 nM and a TGI [3] of 2910 nM. It also gave a GI50 [4] of 110 nM, a TGI [4] of 2000 nM and a GI50 [5] of 1100 nM. It also gave a TGI [5] of 2320 nM, a GI50 [6] of 315 nM and a TGI [6] of 2430 nM. For the same compound, the GI50 [7] was 13.6 nM, the TGI [7] was 36.4 nM and the GI50 [8] was 196 nM. For the same compound, the TGI [8] was 1950 nM, the GI50 [9] was 1370 nM and the TGI [9] was 2690 nM. For the same compound, the GI50 [10] was 56.2 nM, the TGI [10] was 1530 nM and the GI50 [11] was 1210 nM. The TGI [11] was 2460 nM, the GI50 [12] was 242 nM and the TGI [12] was 2200 nM. The GI50 [13] was 1250 nM, the TGI [13] was 2510 nM and the GI50 [14] was < 10 nM. The TGI [14] was 1770 nM, the GI50 [15] was 1070 nM and the TGI [15] was 2580 nM. For the same compound, the GI50 [16] was 997 nM, the TGI [16] was 2160 nM and the GI50 [17] was 1100 nM. It also gave a TGI [17] of 2320 nM, a GI50 [18] of 200 nM and a TGI [18] of 2150 nM. The GI50 [19] was < 11.5 nM, the TGI [19] was 1480 nM and the GI50 [20] was < 10 nM. For the same compound, the GI50 [21] was < 19.8 nM, the TGI [21] was 1750 nM and the GI50 [22] was 605 nM. It also gave a TGI [22] of 2180 nM, a GI50 [23] of 61.5 nM and a TGI [23] of 2020 nM. For the same compound, the GI50 [24] was 1480 nM, the TGI [24] was 3080 nM and the GI50 [25] was < 10 nM. For the same compound, the TGI [25] was 1350 nM, the GI50 [26] was 17.8 nM and the TGI [26] was 57.5 nM. The GI50 [27] was < 10 nM, the GI50 [28] was 1210 nM and the TGI [28] was 2580 nM. For the same compound, the GI50 [29] was 36.2 nM, the TGI [29] was 305 nM and the GI50 [30] was 1260 nM. For the same compound, the TGI [30] was 2540 nM, the GI50 [31] was < 19.4 nM and the TGI [31] was 1450 nM. For the same compound, the GI50 [32] was 19.8 nM, the TGI [32] was 1140 nM and the GI50 [33] was 312 nM. The TGI [33] was 2370 nM, the GI50 [34] was 36.6 nM and the TGI [34] was 1820 nM. The GI50 [35] was < 10 nM, the TGI [35] was 1250 nM and the GI50 [36] was 75 nM. It also gave a TGI [36] of 1890 nM, a GI50 [37] of 39.1 nM and a TGI [37] of 1690 nM. For the same compound, the GI50 [38] was 13.4 nM, the TGI [38] was 1360 nM and the GI50 [39] was < 10 nM. It also gave a GI50 [40] of 1290 nM, a TGI [40] of 2770 nM and a GI50 [41] of 283 nM. It also gave a TGI [41] of 2280 nM, a GI50 [42] of 35.8 nM and a TGI [42] of 2320 nM. For the same compound, the GI50 [43] was 37.9 nM, the TGI [43] was 2210 nM and the GI50 [44] was 56.2 nM. For the same compound, the TGI [44] was 2680 nM, the GI50 [45] was < 10 nM and the TGI [45] was 11.1 nM. For the same compound, the GI50 [46] was 1220 nM, the TGI [46] was 2480 nM and the GI50 [47] was < 10 nM. The TGI [47] was 2160 nM, the GI50 [48] was 293 nM and the TGI [48] was 894 nM. The GI50 [49] was 27 nM, the TGI [49] was 86.2 nM and the GI50 [50] was 88.9 nM. For the same compound, the TGI [50] was 1720 nM, the GI50 [51] was < 10 nM and the TGI [51] was 1070 nM. The GI50 [52] was 110 nM, the TGI [52] was 1970 nM and the GI50 [53] was 1380 nM. The TGI [53] was 2710 nM, the GI50 [54] was 48.9 nM and the TGI [54] was 1450 nM. The GI50 [55] was < 10 nM, the TGI [55] was 2480 nM and the GI50 [56] was 1140 nM. The TGI [56] was 2400 nM, the GI50 [57] was < 21.9 nM and the TGI [57] was 1970 nM. The GI50 [58] was < 19.6 nM, the TGI [58] was 1760 nM and the GI50 [59] was 758 nM. For the same compound, the TGI [59] was 2120 nM.

With `COc1cccc2cc(-c3nc(C4CCC(C(=O)O)CC4)n4ncnc(N)c34)[nH]c12` (stereo unspecified) the GI50 [1] was 964 nM, the TGI [1] was > 100000 nM and the GI50 [2] was 2610 nM. For the same compound, the TGI [2] was 38000 nM, the GI50 [3] was 1250 nM and the TGI [3] was 5750 nM. The GI50 [4] was 442 nM, the TGI [4] was 11400 nM and the GI50 [5] was 811 nM. For the same compound, the TGI [5] was > 100000 nM, the GI50 [6] was 1150 nM and the TGI [6] was 6680 nM. It also gave a GI50 [7] of 11300 nM, a TGI [7] of 23800 nM and a GI50 [9] of 382 nM. For the same compound, the TGI [9] was 2810 nM, the GI50 [10] was 8510 nM and the TGI [10] was > 100000 nM. The GI50 [11] was 453 nM, the TGI [11] was 7410 nM and the GI50 [12] was 1590 nM. It also gave a TGI [12] of 8100 nM, a GI50 [13] of 190 nM and a TGI [13] of 878 nM. It also gave a GI50 [60] of 302 nM, a TGI [60] of 1590 nM and a GI50 [14] of 4130 nM. For the same compound, the TGI [14] was 62400 nM, the GI50 [15] was 2390 nM and the TGI [15] was 11400 nM. For the same compound, the GI50 [16] was 941 nM, the TGI [16] was > 100000 nM and the GI50 [17] was 158 nM. For the same compound, the TGI [17] was 725 nM, the GI50 [18] was 727 nM and the TGI [18] was 15600 nM. The GI50 [19] was 4360 nM, the TGI [19] was > 100000 nM and the GI50 [20] was 651 nM. It also gave a TGI [20] of 10200 nM, a GI50 [21] of 1490 nM and a TGI [21] of 6540 nM. The GI50 [23] was 518 nM, the TGI [23] was 2180 nM and the GI50 [24] was 426 nM. For the same compound, the TGI [24] was 21500 nM, the GI50 [25] was 1360 nM and the TGI [25] was 57000 nM. It also gave a GI50 [26] of 161 nM, a TGI [26] of 542 nM and a GI50 [27] of 4220 nM. The TGI [27] was > 100000 nM, the GI50 [28] was 8960 nM and the TGI [28] was > 100000 nM. The GI50 [29] was 210 nM, the TGI [29] was 1520 nM and the GI50 [30] was 1440 nM. For the same compound, the TGI [30] was 26800 nM, the GI50 [31] was 1760 nM and the TGI [31] was 10400 nM. The GI50 [32] was 2310 nM, the TGI [32] was 49500 nM and the GI50 [33] was 1750 nM. The TGI [33] was 11000 nM, the GI50 [34] was 1160 nM and the TGI [34] was 4990 nM. It also gave a GI50 [35] of 1180 nM, a TGI [35] of 26600 nM and a GI50 [36] of 919 nM. For the same compound, the TGI [36] was 15800 nM, the GI50 [37] was 3330 nM and the TGI [37] was 19500 nM. The GI50 [38] was 2690 nM, the TGI [38] was 10300 nM and the GI50 [39] was 293 nM. The TGI [39] was 1250 nM, the GI50 [40] was 2300 nM and the TGI [40] was 31300 nM. The GI50 [41] was 1100 nM, the TGI [41] was 11600 nM and the GI50 [42] was 3710 nM. The TGI [42] was > 100000 nM, the GI50 [43] was 1180 nM and the TGI [43] was 13000 nM. It also gave a GI50 [44] of 2300 nM, a TGI [44] of 15000 nM and a GI50 [45] of 738 nM. The TGI [45] was 10500 nM, the GI50 [46] was 360 nM and the TGI [46] was 4380 nM. For the same compound, the GI50 [47] was 229 nM, the TGI [47] was > 100000 nM and the GI50 [48] was 3130 nM. For the same compound, the TGI [48] was 27000 nM, the GI50 [49] was 2450 nM and the TGI [49] was 17000 nM. The GI50 [50] was 400 nM, the TGI [50] was > 100000 nM and the GI50 [51] was 390 nM. It also gave a TGI [51] of 13000 nM, a GI50 [52] of 3090 nM and a TGI [52] of 67500 nM. It also gave a GI50 [53] of 5760 nM, a TGI [53] of 44100 nM and a GI50 [54] of 1170 nM. The TGI [54] was 5360 nM, the GI50 [55] was 2900 nM and the TGI [55] was 27900 nM. For the same compound, the GI50 [56] was 560 nM, the TGI [56] was 5830 nM and the GI50 [57] was 539 nM. The TGI [57] was 4250 nM, the GI50 [58] was 1110 nM and the TGI [58] was 5420 nM. For the same compound, the GI50 [59] was 1000 nM and the TGI [59] was 8380 nM.
